Results reported in patent US5104858A, “Sensitizing multidrug resistant cells to antitumor agents” (priority 1988, dated 1992).
“Also recorded” adds a separate entry of the source. Read-outs that look alike come from different tables or passages of the source.

Legend:
MCF-7/DOX cells [1] = assay: Inhibition of MCF-7/DOX cell growth, microtiter methylene blue staining assay, 48 h; type: cell-based, human
Calmodulin [2] = target: T1, Calmodulin (Bos taurus, UniProt P62157); assay: biochemical
MCF-7/DOX cells [3] = assay: Antagonism of multidrug resistance (sensitization to doxorubicin) in MCF-7/DOX cells, MDR Ratio; type: cell-based, human; conditions: for MDR Ratio (IC50 doxorubicin alone / IC50 doxorubicin in presence of modifier): 48 h
[4] = Norman and Drummond; cited from earlier work
MCF-7/DOX cells [5] = assay: Cellular accumulation of doxorubicin in MDR MCF-7/DOX cells; type: cell-based, human; conditions: 3 hours, 15 μM doxorubicin
From the text: Cellular content of doxorubicin was computed from standard curves prepared with known amounts of doxorubicin.

[6] = test system: KC/ADR10 human breast cells; conditions: Ahn et al; cited from earlier work
L1210/DOX cells = conditions: Ganapathi and Grabowski; cited from earlier work
P-glycoprotein = conditions: MDR Chinese hamster lung cells, Center; cited from earlier work
[7] = test system: clinically resistant cancer; conditions: with doxorubicin or bleomycin, Phase I, cited from earlier work
MCF-7/DOX cells [8] = conditions: Fine et al; cited from earlier work
Calmodulin [9] = target: T1, Calmodulin; conditions: Norman and Drummond; cited from earlier work
MCF-7/DOX cells [10] = assay: Cellular accumulation of cis and trans-flupenthixol in MCF-7/DOX cells; type: cell-based, human; conditions: for cell associated drug concentration at 3 μM / cell associated drug concentration at 10 μM / cell associated drug concentration at 100 μM: 3 hour incubation; for cellular accumulation of thioxanthene isomers, in words: MDR cells
Protocol: Cells were washed three times in cold PBS by centrifugation at 100× g for 10 minutes, resuspended in 2 ml of 0.3N HCl in 50% ethanol, and sonicated for 10 pulses at 200 ws with a Tekmar cell sonicator (Tekmar, Cincinnati, Ohio). Following centrifugation at 1000× g for 30 minutes, the supernatant was removed and assayed for drug content with a Perkin-Elmer 512 spectrofluorometer (Norwalk, Conn.). Optimal excitation and emission wavelengths for both thioxanthene isomers were determined to be 320 nm and 400 nm, respectively.

acute schizophrenia = conditions: humans; cited from earlier work
[11] = Homo sapiens, MCF7-DOX, 48 h, MCF-7/DOX cells, 48 h, drug alone; read-out: IC50 for cell growth inhibition
[12] = MCF-7/DOX cells, 48 h, drug alone; read-out: IC50 for cell growth inhibition
[13] = Homo sapiens, MCF7-DOX, 48 h, read-out: IC50 for cell growth inhibition
[14] = Homo sapiens, MCF7-DOX, 48 h; read-out: IC50 for cell growth inhibition
[15] = read-out: IC50 for cell growth inhibition
[16] = Homo sapiens, MCF7-DOX, 48 h, MCF-7/DOX cells, 48 h, structurally related compounds; read-out: Cell Growth Inhibition IC50 (Table 5)
[17] = Homo sapiens, MCF7-DOX, 48 h, read-out: concentration which alone produces 10% inhibition of cell growth
[18] = Homo sapiens, MCF7-DOX, 48 h; read-out: Cell Growth Inhibition IC50 (Table 5)

## CN(C)CCCN1c2ccccc2Sc2cccc(Cl)c21 [1-Chlorpromazine]
MCF-7/DOX cells [1]; [11]
  IC50: 21 µM
Calmodulin [2]
  IC50: 74 µM
MCF-7/DOX cells [3]
  MDR Ratio (IC50 doxorubicin alone / IC50 doxorubicin in presence of modifier): 1.3

## CN(C)CCN1c2ccccc2Sc2ccc(Cl)cc21 [2-Chloro-10-[2-(dimethylamino)ethyl] phenothiazine]
MCF-7/DOX cells [1]; [11]
  IC50: 27 µM
Calmodulin [2]
  IC50: 60 µM
MCF-7/DOX cells [3]
  MDR Ratio (IC50 doxorubicin alone / IC50 doxorubicin in presence of modifier): 1.5

## CN(C)CCCCN1c2ccccc2Sc2ccc(Cl)cc21 [2-Chloro-10-[4-(dimethylamino)butyl] phenothiazine]
MCF-7/DOX cells [1]; [11]
  IC50: 7 µM
Calmodulin [2]
  IC50: 40 µM
MCF-7/DOX cells [3]
  MDR Ratio (IC50 doxorubicin alone / IC50 doxorubicin in presence of modifier): 2.0

## CN(C)CCCN1c2cc(O)ccc2Sc2cc(O)c(Cl)cc21 [3,8-Dihydroxychlorpromazine]
MCF-7/DOX cells [1]; [11]
  IC50: 400 µM
Calmodulin [2]
  IC50: 183 µM
MCF-7/DOX cells [3]
  MDR Ratio (IC50 doxorubicin alone / IC50 doxorubicin in presence of modifier): 0.9

## CN(C)CCCN1c2ccccc2Sc2cc(Cl)ccc21 [3-Chlorpromazine]
MCF-7/DOX cells [1]; [11]
  IC50: 10 µM
Calmodulin [2]
  IC50: 24 µM
MCF-7/DOX cells [3]
  MDR Ratio (IC50 doxorubicin alone / IC50 doxorubicin in presence of modifier): 1.3

## CN(C)CCCN1c2ccccc2Sc2c(Cl)cccc21 [4-Chlorpromazine]
MCF-7/DOX cells [1]; [11]
  IC50: 15 µM
Calmodulin [2]
  IC50: 25 µM
MCF-7/DOX cells [3]
  MDR Ratio (IC50 doxorubicin alone / IC50 doxorubicin in presence of modifier): 1.4

## CN(C)CCCN1c2cc(Cl)ccc2Sc2cc(O)c(O)cc21 [7,8-Dihydroxychlorpromazine]
MCF-7/DOX cells [1]; [11]
  IC50: 63 µM
Calmodulin [2]
  IC50: 82 µM
MCF-7/DOX cells [3]
  MDR Ratio (IC50 doxorubicin alone / IC50 doxorubicin in presence of modifier): 0.8

## CN(C)CCCN1c2ccc(O)cc2Sc2ccc(Cl)cc21 [7-Hydroxychlorpromazine]
MCF-7/DOX cells [1]; [11]
  IC50: 50 µM
MCF-7/DOX cells [1]; versus chlorpromazine
  relative potency in inhibiting cell growth (fold less potent): 6 fold
Calmodulin [2]
  IC50: 68 µM
MCF-7/DOX cells [3]
  MDR Ratio (IC50 doxorubicin alone / IC50 doxorubicin in presence of modifier): 1.0

## CCN(CC)CCCN1c2ccccc2Sc2ccc(Cl)cc21 [Chlorproethazine]
MCF-7/DOX cells [1]; [11]
  IC50: 8 to 12 µM
MCF-7/DOX cells [1]; [12]
  IC50: 12 µM
Calmodulin [2]
  IC50: 28 µM
MCF-7/DOX cells [3]
  MDR Ratio (IC50 doxorubicin alone / IC50 doxorubicin in presence of modifier): 2.2

## CN(C)CCCN1c2ccccc2[S+]([O-])c2ccc(Cl)cc21 (stereo not shown) [Chlorpromazine Sulfoxide]
MCF-7/DOX cells [1]
  inhibition of cell growth, comparison in words: lost most of its antiproliferative effect
MCF-7/DOX cells [1]; [13]
  IC50: 500 µM
Calmodulin [2]
  IC50: 2200 µM
MCF-7/DOX cells [3]
  anti-MDR activity, comparison in words: retained its effect against MDR

## CN(C)CCCN1c2ccccc2Sc2ccc(Cl)cc21 [Chlorpromazine]
[4]
  octanol:buffer partition coefficient (log P): 4.04
MCF-7/DOX cells [1]; [14]
  IC50: 8 µM
MCF-7/DOX cells [1]; [15]
  IC50: 8 to 12 µM
MCF-7/DOX cells [3]
  sensitization of MCF-7/DOX cells to doxorubicin: 60%

## CNCCCN1c2ccccc2Sc2ccc(Cl)cc21 [Desmethylchlorpromazine]
MCF-7/DOX cells [1]; [11]
  IC50: 8 to 12 µM
MCF-7/DOX cells [1]; MCF-7/DOX cells, 48 h, drug alone; listed as desmethylchlorpromazine; read-out: IC50 for cell growth inhibition
  IC50: 8 µM
MCF-7/DOX cells [1]; [12]
  IC50: 8 µM
Calmodulin [2]
  IC50: 45 µM
MCF-7/DOX cells [3]
  MDR Ratio (IC50 doxorubicin alone / IC50 doxorubicin in presence of modifier): 1.2

## NCCCN1c2ccccc2Sc2ccc(Cl)cc21 [Didesmethylchlorpromazine]
MCF-7/DOX cells [1]; [11]
  IC50: 8 to 12 µM
MCF-7/DOX cells [1]; [12]
  IC50: 11 µM
Calmodulin [2]
  IC50: 38 µM
MCF-7/DOX cells [3]
  MDR Ratio (IC50 doxorubicin alone / IC50 doxorubicin in presence of modifier): 1.1

## COc1cccc2c1C(=O)c1c(O)c3c(c(O)c1C2=O)C[C@@](O)(C(=O)CO)C[C@@H]3O[C@H]1C[C@H](N)[C@H](O)[C@H](C)O1 [Doxorubicin]
MCF-7/DOX cells [1]; [13]
  IC50: 12 µM
MCF-7/DOX cells [1]; human, mcf-7/dox cells
  resistance to doxorubicin of MCF-7/DOX cells relative to parental cell line: approximately 200 fold
MCF-7/DOX cells [5]
  doxorubicin accumulation, fold less in MCF-7/DOX than in sensitive cell line: approximately 10 fold

## CC1CNCCN1S(=O)(=O)c1cccc2cnccc12 (stereo not shown) [H-7, 1-(5-isoquinolinylsulfonyl)-2-methylpiperazine]
[6]
  sensitization of KC/ADR10 human breast cells: does sensitize KC/ADR10 human breast cells
L1210/DOX cells
  sensitization of L1210/DOX cells: failed to sensitize L1210/DOX cells

## CN(C)CCCN1c2ccccc2CCc2ccccc21 [Imipramine]
MCF-7/DOX cells [1]; [16]
  IC50: 19 µM
Calmodulin [2]
  IC50: 125 µM

## OC1(c2ccc(Cl)c(C(F)(F)F)c2)CCN(CCCC(c2ccc(F)cc2)c2ccc(F)cc2)CC1 [Penfluridol]
MCF-7/DOX cells [1]; [16]
  IC50: 3 µM
Calmodulin [2]
  IC50: 3 µM
MCF-7/DOX cells [3]
  MDR Ratio (IC50 doxorubicin alone / IC50 doxorubicin in presence of modifier): 2.0

## OCCN1CCN(CCCN2c3ccccc3Sc3ccc(Cl)cc32)CC1 [Perphenazine]
MCF-7/DOX cells [1]; [14]
  IC50: 32 µM

## O=c1[nH]c2ccccc2n1C1CCN(CCCC(c2ccc(F)cc2)c2ccc(F)cc2)CC1 [Pimozide]
[4]
  octanol:buffer partition coefficient (log P): 4.88
Calmodulin [2]
  IC50: 7 µM

## CN(C)CCCN1c2ccccc2Sc2ccccc21 [Promazine]
MCF-7/DOX cells [1]; [11]
  IC50: 26 µM
MCF-7/DOX cells [1]; [12]
  IC50: 27 µM
Calmodulin [2]
  IC50: 110 µM
MCF-7/DOX cells [3]
  MDR Ratio (IC50 doxorubicin alone / IC50 doxorubicin in presence of modifier): 1.2
MCF-7/DOX cells [3]; modifier at 10% growth inhibitory concentration
  sensitization of MCF-7/DOX cells to doxorubicin: 20%

## CC(CN1c2ccccc2Sc2ccccc21)N(C)C (stereo not shown) [Promethazine]
MCF-7/DOX cells [1]
  inhibition of cell growth, comparison in words: less potent inhibitor of cell growth than promazine
MCF-7/DOX cells [1]; [14]
  IC50: 29 µM

## CCN(CC)CCCC(C)Nc1c2ccc(Cl)cc2nc2ccc(OC)cc12 (stereo not shown) [Quinacrine]
MCF-7/DOX cells [1]; [16]
  IC50: 3 µM
Calmodulin [2]
  IC50: 42 µM
MCF-7/DOX cells [3]
  MDR Ratio (IC50 doxorubicin alone / IC50 doxorubicin in presence of modifier): 1.3

## CSc1ccc2c(c1)N(CCCN(C)C)c1ccccc1S2 [Thiomethylpromazine]
MCF-7/DOX cells [1]; [11]
  IC50: 20 µM
Calmodulin [2]
  IC50: 42 µM
MCF-7/DOX cells [3]
  MDR Ratio (IC50 doxorubicin alone / IC50 doxorubicin in presence of modifier): 1.5

## CN1CCN(CCCN2c3ccccc3Sc3ccc(C(F)(F)F)cc32)CC1 [Trifluoperazine]
MCF-7/DOX cells [1]; [14]
  IC50: 19 µM
P-glycoprotein
  phosphorylation of P-glycoprotein, doxorubicin accumulation and cytotoxicity: increased phosphorylation of this protein in MDR Chinese hamster lung cells and enhanced doxorubicin accumulation and cytotoxicity
[7]
  dose limiting side effects in combination trials: Extrapyramidal side effects have proven to be dose limiting
[7]; listed as trifluperazine
  dose limiting side effects in combination trials: extrapyramidal side effects
MCF-7/DOX cells [8]
  reversal of phorbol ester effects on anthracycline resistance: reversed

## CN(C)CCCN1c2ccccc2Sc2ccc(C(F)(F)F)cc21 [Trifluopromazine]
MCF-7/DOX cells [1]; [14]
  IC50: 16 µM
MCF-7/DOX cells [1]; [15]
  IC50: 14 µM

## OCCN1CCN(CC/C=C2/c3ccccc3Sc3ccc(C(F)(F)F)cc32)CC1 [cis-Flupenthixol]
[4]
  octanol:buffer partition coefficient (log P): 4.25
MCF-7/DOX cells [1]; [17]
  IC10: 3 µM
MCF-7/DOX cells [1]; [18]
  IC50: 24 µM
Calmodulin [9]
  anti-CaM effect of thioxanthene stereoisomers: no difference between cis and trans-flupenthixol
MCF-7/DOX cells [10]
  cell associated drug concentration at 3 μM: 830 ± 80 pmol/10^6 cells
  cell associated drug concentration at 10 μM: 1420 ± 250 pmol/10^6 cells
  cell associated drug concentration at 100 μM: 7000 ± 330 pmol/10^6 cells
  cellular accumulation of thioxanthene isomers, in words: equivalent, dose-dependent fashion

## OCCN1CCN(CC/C=C2\c3ccccc3Sc3ccc(C(F)(F)F)cc32)CC1 [trans-Flupenthixol]
[4]
  octanol:buffer partition coefficient (log P): 4.25
MCF-7/DOX cells [1]; [13]
  IC50: 25 µM
MCF-7/DOX cells [1]; [17]
  IC10: 6 µM
MCF-7/DOX cells [1]; [18]
  IC50: 25 µM
Calmodulin [9]
  anti-CaM effect of thioxanthene stereoisomers: no difference between cis and trans-flupenthixol
MCF-7/DOX cells [10]
  cell associated drug concentration at 3 μM: 420 ± 80 pmol/10^6 cells
  cell associated drug concentration at 10 μM: 1000 ± 250 pmol/10^6 cells
  cell associated drug concentration at 100 μM: 6000 ± 330 pmol/10^6 cells
  cellular accumulation of thioxanthene isomers, in words: equivalent, dose-dependent fashion
Acute schizophrenia
  extrapyramidal side effects / toxicity of flupenthixol isomers: lacks these side effects; also recorded: far less toxic; also recorded: apparent lack of extrapyramidal side effects
